Assay results: patent US5200335A (Forschungszentrum Juelich GmbH, priority 1990, dated 1993)
“Also recorded” adds a separate entry of the source. Like-named read-outs stand apart in the source and are kept apart here.

Experiments:
[1] = target: T1, phenylethanol dehydrogenase (Lentilactobacillus kefiri, UniProt Q6WVP7); assay: NADPH-dependent reduction: substrate spectrum and dependence of reaction rate on acetophenone/NADPH concentration
T1 sequence (Q6WVP7 2-252 limits assumed): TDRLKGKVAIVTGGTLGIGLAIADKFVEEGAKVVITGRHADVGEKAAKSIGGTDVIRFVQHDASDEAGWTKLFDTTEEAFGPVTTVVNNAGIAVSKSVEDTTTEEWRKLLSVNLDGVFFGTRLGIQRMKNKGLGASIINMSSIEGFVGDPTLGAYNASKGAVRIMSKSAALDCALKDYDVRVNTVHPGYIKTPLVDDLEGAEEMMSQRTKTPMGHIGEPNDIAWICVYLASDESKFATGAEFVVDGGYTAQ

[2] = target: T1, phenylethanol dehydrogenase; assay: Effect of metal cations, inhibitors and SH-protecting reagents on enzyme activity; assay type: biochemical, Lactobacillus kefir
Experimental: Partially purified enzyme (after Mono-Q chromatography, concentrated 20-fold) was employed for the following tests.
(i) METAL CATIONS: The effect of Mg^2+, […] and Mn^2+ ions was investigated using the assay mixture detailed below. […]
(ii) INHIBITORS AND SH-[…]: An assay mixture according to Example 2 C(i) without added metal cations but with addition of various inhibitors or SH-[…] at a final concentration of 1 mM was used to determine the effect of certain enzyme inhibitors and SH-[…] on enzyme activity. […] Phenylmethanesulfonyl fluoride was dissolved in acetonitrile to a final concentration of acetonitrile of […]. Acetonitrile alone had no effect on the enzyme activity in control tests.

[3] = target: T1, phenylethanol dehydrogenase; assay: NADP+-dependent oxidation / reverse reaction with R(+)- or S(-)-phenylethanol; settings: for Enzyme activity (oxidation): 11 mM alcohol, pH 8.0, NADP+, 340 nm, 30° C.; for Stereospecificity / effect on the enzyme (in words): comparison of mixtures I, II and III; for Vmax: NADP+-dependent oxidations
Experimental: (§1) The optimum pH for the reverse reaction, the oxidation of phenylethanol, was measured in an analogous manner. (±)-Phenylethanol (22 mM) was dissolved in aliquots of a 0.1M buffer and the pH was adjusted to a range from 4.0 to 10.0.
(§2) A third mixture containing 22 mM (±)-phenylethanol was employed for comparison. Enzyme activity was measured by photometry at 340 nm at 30° C.

[4] = substrate: CC(=O)c1ccc(Br)cc1; assay: purified protein, by the assay type; settings: other: NADPH-dependent reductions, pH 7.0, 0.2 mM NADPH, partially purified enzyme, 30.0 °C
[5] = substrate: CCC(=O)c1ccccc1; assay: purified protein, by the assay type; settings: pH 7.0; 30.0 °C
[6] = substrate: CC(=O)CCc1ccccc1; assay: purified protein, by the assay type; settings: other: NADPH-dependent reductions, pH 7.0, 0.2 mM NADPH, partially purified enzyme, 30.0 °C
[7] = substrate: CC(=O)C(C)(C)C; assay: purified protein, by the assay type; settings: pH 7.0; 30.0 °C
[8] = substrate: CC(=O)c1ccccc1; assay: purified protein, by the assay type; settings: other: acetophenone 50-7100 μM, 0.2 mM NADPH, pH 7.0, 30° C.
[9] = substrate: CCCCCC(=O)CC; assay: purified protein, by the assay type; settings: other: NADPH-dependent reductions, pH 7.0, 0.2 mM NADPH, partially purified enzyme, 30.0 °C
[10] = substrate: NC(=O)C1=CN([C@@H]2O[C@H](COP(=O)(O)OP(=O)(O)OC[C@H]3O[C@@H](n4cnc5c(N)ncnc54)[C@H](OP(=O)(O)O)[C@@H]3O)[C@@H](O)[C@H]2O)C=CC1; assay: purified protein, by the assay type; settings: other: NADPH 13 to 380 μM, 5.3 mM acetophenone, pH 7.0, 30° C.
[11] = substrate: CCCCCCC(C)=O; assay: purified protein, by the assay type; settings: other: NADPH-dependent reductions, pH 7.0, 0.2 mM NADPH, partially purified enzyme, 30.0 °C
[12] = substrate: CC(=O)c1ccc(Cl)cc1; assay: purified protein, by the assay type; settings: pH 7.0; 30.0 °C
[13] = substrate: CC(C)=O; assay: purified protein, by the assay type; settings: other: NADPH-dependent reductions, pH 7.0, 0.2 mM NADPH, partially purified enzyme, 30.0 °C
[14] = substrate: CC(O)c1ccccc1; assay: cells, lysate or membranes named; settings: other: NADP+-dependent oxidations; 30.0 °C
Experimental: as §1, §2

[15] = substrate: CC(C)O; assay: cells, lysate or membranes named; settings: other: NADP+-dependent oxidations; 30.0 °C
[16] = substrate: C[C@@H](O)c1ccccc1; assay: cells, lysate or membranes named; settings: other: NADP+-dependent oxidations; 30.0 °C
Experimental: as §1, §2

[17] = substrate: NC(=O)c1ccc[n+]([C@@H]2O[C@H](COP(=O)(O)OP(=O)(O)OC[C@H]3O[C@@H](n4cnc5c(N)ncnc54)[C@H](OP(=O)(O)O)[C@@H]3O)[C@@H](O)[C@H]2O)c1; assay: cells, lysate or membranes named; settings: other: NADP+-dependent oxidations; 30.0 °C
Experimental: as §1, §2

[18] = NADPH-dependent reductions, pH 7.0, 0.2 mM NADPH, partially purified enzyme
[19] = pH 7, read-out: Activity remaining
[20] = NADPH-dependent reductions, […]
[21] = pH 7; read-out: Activity remaining
[22] = addition at final concentration 1 mM; 5.5 mM acetophenone, 0.2 mM NADPH, pH 7.0; partially purified enzyme

## (±)-Methylcyclohexanone
[1]; [18]
  Km: 70000 µM
  Vmax: 109%
[1]; in the presence of NADPH
  Reduction by the enzyme (in words): capable of catalyzing the reduction; also recorded: capable of reducing

## O=C(O)CN(CCN(CC(=O)O)CC(=O)O)CC(=O)O [EDTA]
[2]
  Effect on enzyme activity (in words): completely inhibited; also recorded: rapidly inactivated; also recorded: rapid inactivation
[2]; [19]
  remaining activity at 1000 µM: 0%

## CC(=O)C(=O)c1ccccc1 [1-Phenyl-1,2-propanedione]
[1]; [20]
  Vmax: 70%
[1]; in the presence of NADPH
  Reduction by the enzyme (in words): capable of catalyzing the reduction; also recorded: capable of reducing

## c1ccc(-c2ccccn2)nc1 [2,2'-Dipyridine]
[2]
  Effect on enzyme activity (in words): virtually no inhibition
[2]; [21]
  remaining activity at 1000 µM: 106%

## CCC(=O)c1ccccc1 [Propiophenone]
[1]; [20]
  Vmax: 43%
[1]; in the presence of NADPH
  Reduction by the enzyme (in words): capable of catalyzing the reduction; also recorded: capable of reducing

## C[C@H](O)c1ccccc1 [Mixture II, S(-)-phenylethanol]
[3]
  Enzyme activity (oxidation): 0 U/ml
  Stereospecificity / effect on the enzyme (in words): inhibits the enzyme

## NC(=O)c1ccc[n+]([C@@H]2O[C@H](COP(=O)(O)OP(=O)(O)OC[C@H]3O[C@@H](n4cnc5c(N)ncnc54)[C@H](OP(=O)(O)O)[C@@H]3O)[C@@H](O)[C@H]2O)c1 [NADP^+]
[3]
  Vmax: 17%

## CCCCCC(=O)CC [Ethyl pentyl ketone]
[1]; [18]
  Vmax: 66%
[1]; in the presence of NADPH
  Reduction by the enzyme (in words): capable of catalyzing the reduction; also recorded: capable of reducing

## O=C(O)c1cc[c]([Hg][OH])cc1 [p-Hydroxymercurybenzoate]
[2]
  Effect on enzyme activity (in words): relatively weak inhibition
[2]; addition at final concentration 0.1 mM; 5.5 mM acetophenone, 0.2 mM NADPH, pH 7.0; partially purified enzyme
  Activity remaining: 92%

## CC(C)=O [Acetone]
[1]; [20]
  Vmax: 96%
[1]; in the presence of NADPH
  Reduction by the enzyme (in words): capable of catalyzing the reduction; also recorded: capable of reducing

## O=S(=O)(F)Cc1ccccc1 [Phenylmethanesulfonyl fluoride]
[2]; [22]
  Activity remaining: 94%

## CC(=O)c1ccc2ccccc2c1 [Methyl 2-naphthyl ketone]
[1]; [18]
  Vmax: 11%

## CC(=O)CCc1ccccc1 [4-Phenyl-2-butanone]
[1]; [18]
  Vmax: 90%
[1]; in the presence of NADPH
  Reduction by the enzyme (in words): capable of catalyzing the reduction; also recorded: capable of reducing

## CC(=O)C(C)(C)C [Pinacolone]
[1]
  Reduction by the enzyme (in words): capable of catalyzing the reduction; also recorded: capable of reducing
[1]; pH 7
  Vmax: 53%

## CC(=O)c1ccc(Cl)cc1 [4-Chloroacetophenone]
[1]; [20]
  Vmax: 93%
[1]; in the presence of NADPH, listed as p-chloroacetophenone
  Reduction by the enzyme (in words): capable of catalyzing the reduction; also recorded: capable of reducing

## NC(=O)CI [Iodoacetamide]
[2]
  Effect on enzyme activity (in words): relatively weak inhibition
[2]; [21]
  remaining activity at 1000 µM: 90%

## CC(=O)C=C(C)C [Mesityl oxide, 4-methyl-3-pentene-2-one]
[1]; [20]
  Vmax: 12%

## [Cl][Mn][Cl] [MnCl2]
[2]; [22]
  Activity remaining: 114%

## CCN1C(=O)C=CC1=O [N-Ethylmaleimide]
[2]
  Effect on enzyme activity (in words): relatively weak inhibition
[2]; [21]
  remaining activity at 1000 µM: 81%

## C[C@@H](O)c1ccccc1 [R(+)-Phenylethanol]
[3]
  Enzyme activity (oxidation): 3.5 U/ml
  Vmax: 11%
  Stereospecificity / effect on the enzyme (in words): highly specific

## O=Cc1ccccc1 [Benzaldehyde]
[1]; [20]
  Vmax: 10%

## CC(=O)c1ccc(Br)cc1 [4-Bromoacetophenone]
[1]; [20]
  Vmax: 101%
[1]; in the presence of NADPH, listed as p-bromoacetophenone
  Reduction by the enzyme (in words): capable of catalyzing the reduction; also recorded: capable of reducing

## O[C@H](CS)[C@H](O)CS (racemic) [Dithiothreitol]
[2]; [21]
  remaining activity at 1000 µM: 95%

## CCCCCCC(C)=O [Methyl hexyl ketone]
[1]; [18]
  Vmax: 91%
[1]; in the presence of NADPH
  Reduction by the enzyme (in words): capable of catalyzing the reduction; also recorded: capable of reducing

## [Cl-].[Cl-].[Mg+2] [MgCl2]
[2]; [22]
  Activity remaining: 132%

## NC(=O)C1=CN([C@@H]2O[C@H](COP(=O)(O)OP(=O)(O)OC[C@H]3O[C@@H](n4cnc5c(N)ncnc54)[C@H](OP(=O)(O)O)[C@@H]3O)[C@@H](O)[C@H]2O)C=CC1 [NADPH]
[1]; 5.3 mM acetophenone, pH 7.0, 30° C.
  NADPH concentration at maximum enzyme activity: 190 µM
[1]; [18]
  Vmax: 100%
[1]; at 190 μM NADPH, 5.3 mM acetophenone
  Maximum enzyme activity: 16.9 U/ml

## N[C@@H](CCC(=O)N[C@@H](CS)C(=O)NCC(=O)O)C(=O)O [Glutathione]
[2]; [19]
  remaining activity at 1000 µM: 99%

## [Cl-].[Cl-].[Zn+2] [ZnCl2]
[2]; [22]
  Activity remaining: 114%

## CC(C)O [Isopropanol]
[3]
  Vmax: 18%

## CC(=O)c1ccccc1 [Acetophenone]
[1]; [18]
  Vmax: 100%
[1]; acetophenone conversion, 0.2 mM NADPH, pH 7.0, 30° C.
  Substrate concentration at maximum enzyme activity: 5.3 mM
[1]; at 5.3 mM acetophenone, 0.2 mM NADPH
  Maximum activity: 18.6 U/ml
[1]; in the presence of NADPH
  Reduction by the enzyme (in words): capable of catalyzing the reduction; also recorded: capable of reducing
[1]; up to an acetophenone concentration of 10.6 mM
  Excess substrate inhibition: no excess substrate inhibition

## Triton X-100
[2]; [22]
  Activity remaining: 94%

## c1cnc2c(c1)ccc1cccnc12 [1,10-Phenanthroline]
[2]
  Effect on enzyme activity (in words): virtually no inhibition
[2]; [21]
  remaining activity at 1000 µM: 99%

B1: phenylethanol dehydrogenase (Lentilactobacillus kefiri) (protein)
chain: TDRLKGKVAIVTGGTLGIGLAIADKFVEEGAKVVITGRHADVGEKAAKSIGGTDVIRFVQHDASDEAGWTKLFDTTEEAFGPVTTVVNNAGIAVSKSVEDTTTEEWRKLLSVNLDGVFFGTRLGIQRMKNKGLGASIINMSSIEGFVGDPTLGAYNASKGAVRIMSKSAALDCALKDYDVRVNTVHPGYIKTPLVDDLEGAEEMMSQRTKTPMGHIGEPNDIAWICVYLASDESKFATGAEFVVDGGYTAQ
[4]
  Km: 372 µM
[5]
  Km: 2740 µM
[6]
  Km: 9400 µM
[7]
  Km: 3380 µM
[8]
  Km: 600 µM
[9]
  Km: 681 µM
[10]
  Km: 140 µM
[11]
  Km: 251 µM
[12]
  Km: 390 µM
[13]
  Km: 37900 µM
[14]
  Km: 4300 µM
[15]
  Km: 117 µM
[16]
  Km: 3500 µM
[17]
  Km: 190 µM
